Measured values as given in the CheMixHub viscosity set.

Experiment: xn = mol fraction of the nth substance listed

COCCOCCOC + CCCCO
viscosity [mPa·s], 101 kPa
Conditions	x1 = 0.1051	x1 = 0.2018	x1 = 0.3019	x1 = 0.4029	x1 = 0.5049	x1 = 0.6017	x1 = 0.7049	x1 = 0.7983	x1 = 0.9023
298.15 K	1.866	1.542	1.304	1.178	1.103	1.048	1.019	0.998	0.989
308.15 K	1.48	1.252	1.074	0.983	0.924	0.883	0.863	0.849	0.842
318.15 K	1.186	1.028	0.906	0.827	0.782	0.762	0.74	0.73	0.723

Cc1ccc(S(=O)O[C@@H]2C[C@H](C)CC[C@H]2C(C)C)cc1 (stereo partly drawn) + CCCCO
298 K, 101.3 kPa
Conditions	viscosity [mPa·s]
x1 = 0.00285	2.53
x1 = 0.00515	2.538
x1 = 0.007672	2.595
x1 = 0.01005	2.623
x1 = 0.01302	2.653
x1 = 0.01567	2.683

COCCOCCOC + CCCCOC(C)=O
viscosity [mPa·s], 101.33 kPa
Conditions	x1 = 0.0863	x1 = 0.1754	x1 = 0.2733	x1 = 0.3672	x1 = 0.4639	x1 = 0.5609	x1 = 0.6688	x1 = 0.8022	x1 = 0.8835
298.15 K	0.706	0.734	0.764	0.791	0.822	0.852	0.884	0.924	0.948
303.15 K	0.659	0.684	0.712	0.736	0.764	0.791	0.82	0.856	0.878
308.15 K	0.616	0.639	0.664	0.686	0.714	0.737	0.768	0.796	0.816
313.15 K	0.578	0.599	0.622	0.641	0.665	0.69	0.712	0.742	0.759
318.15 K	0.542	0.562	0.583	0.601	0.622	0.642	0.665	0.692	0.709

CNc1ccccc1 + CCCCOCCO
viscosity [mPa·s], 101.3 kPa
Conditions	x2 = 0.0992	x2 = 0.2016	x2 = 0.3298	x2 = 0.4032	x2 = 0.4978	x2 = 0.6441	x2 = 0.7771	x2 = 0.8935
298 K	2.01	2.089	2.213	2.314	2.425	2.589	2.709	2.788
303 K	1.756	1.811	1.918	1.999	2.094	2.232	2.319	2.395
308 K	1.567	1.613	1.699	1.753	1.836	1.951	2.049	2.111
313 K	1.398	1.433	1.502	1.55	1.619	1.718	1.792	1.851
318 K	1.256	1.302	1.352	1.444	1.495	1.576	1.661	1.696
